Measured values as given in PMC7817691 (Nature Communications, 2021).

What was measured:
SARS-CoV-2 PLpro [1] = molecular target: T1, SARS-CoV-2 PLpro (Severe acute respiratory syndrome coronavirus 2, UniProt P0DTD1); assay type: biochemical
T1 construct: gene rep

SARS-CoV-2 PLpro [2] = molecular target: T1, SARS-CoV-2 PLpro; assay type: binding

Row | Compound | IC50 (SARS-CoV-2 PLpro [1]) [µM] | 1H,15N-HSQC NMR competition with 15N-ISG15 (SARS-CoV-2 PLpro [2])
1 | CC(=O)Nc1ccc(C)c(C(=O)N[C@H](C)c2cccc3ccccc23)c1 [compound 6] | 11 ± 3 | 
2 | Nc1nc(=S)c2[nH]cnc2[nH]1 [Tioguanine] | 72 ± 12 | 
3 | Cc1ccc(N)cc1C(=O)N[C@H](C)c1cccc2ccccc12 [GRL0617] |  | GRL0617 competes with ISG15 for the binding site in PLpro
